Consider three molecules from article PMC8949129, “Unique Phenanthrenes from Juncus ensifolius and Their Antiproliferative and Synergistic Effects with the Conventional Anticancer Agent Doxorubicin against Human Cancer Cell Lines” (Pharmaceutics, 2022).

The subject of series [1] is COLO 205 doxorubicin-sensitive colonic adenocarcinoma cells. Briefly: Antiproliferative MTT assay, COLO 205. It counts as cell-based, human. The note with it: for IC50: MTT, 72 h, four parallel measurements, read-out: IC50 (µM) ± SD COLO 205; for SI MRC-5/COLO 205: selectivity index: IC50 in non-tumour cells / IC50 in cancer cells.
Procedure: (§1) The human colon adenocarcinoma cells (COLO 205 sensitive and the resistant COLO 320/MDR-LRP expressing P-gp), namely, ATCC-CCL-220.1 (COLO 320) and CCL-222 (COLO 205) were cultured in RPMI 1640 medium supplemented with 10% heat-inactivated fetal bovine serum, 2 mM L-glutamine, 1 mM Na pyruvate, and 100 mM HEPES. HeLa (ATCC® CCL-2™) human cervix carcinoma cells, and MRC-5 (ATCC® CCL-171) human embryonal lung fibroblast cells were cultured in Eagle’s minimal essential medium (EMEM, containing 4.5 g/L glucose) supplemented with a non-essential amino acid mixture, a selection of vitamins, and 10% heat-inactivated fetal bovine serum. The cell lines were detached with 0.25% trypsin and 0.02% EDTA for 5 min at 37 °C.
(§2) In the study, human colonic adenocarcinoma cell lines (doxorubicin-sensitive COLO 205 and multidrug resistant COLO 320 colonic adenocarcinoma cells), HeLa human cervix carcinoma cells and the MRC-5 non-cancerous human embryonic lung fibroblast cell line were used to determine the effect of the compounds on cell growth. The effects of increasing concentrations of compounds on cell growth were tested in 96-well flat-bottomed microtiter plates. […] The compounds were diluted in a volume of 100 μL of the medium. The adherent cells were cultured in 96-well flat-bottomed microtiter plates using EMEM supplemented with 10% heat-inactivated fetal bovine serum. The density of the cells was adjusted to 6 × 10^3 cells in 100 µL per well, the cells were seeded prior to the assay for 24 h at 37 °C, with 5% CO2, and then the medium was removed from the plates, and fresh medium (100 µL per well) was added to the cells. The effects of increasing concentrations of compounds on cell proliferation were tested in 96-well flat-bottomed microtiter plates. The compounds were diluted in the appropriate medium; the dilutions of compounds were performed in separate plates and then added to the cells. The starting concentration of the compounds was 100 µM, and two-fold serial dilution was performed (concentration range: 100–0.19 µM). The culture plates were incubated at 37 °C for 72 h; at the end of the incubation period, 20 µL of MTT (thiazolyl blue tetrazolium bromide, Sigma) solution (from a stock solution of 5 mg/mL) was added to each well. After incubation at 37 °C for 4 h, 100 µL of sodium dodecyl sulfate (SDS) (Sigma) solution (10% in 0.01 M HCI) was added to each well, and the plates were further incubated at 37 °C overnight. Cell growth was determined by measuring the optical density (OD) at 540/630 nm, with a Multiscan EX ELISA reader (Thermo Labsystems, Cheshire, WA, USA). Inhibition of cell growth (expressed as IC50: inhibitory concentration that reduces the growth of the cells exposed to the tested compounds by 50%) was determined from the sigmoid curve where 100 − ((ODsample − ODmedium control)/(ODcell control − ODmedium control)) × 100 was plotted against the logarithm of the compound concentrations. Curves were fitted by Prism5 software (GraphPad Software Inc., San Diego, CA, USA) from four parallel experiments for each cell line. Results are expressed in terms of IC50, defined as the inhibitory dose that reduces the proliferation of the cells exposed to the tested compounds by 50% [20].
Series [2] concerns HeLa human cervix carcinoma cells. Nature of the series: Antiproliferative MTT assay, HeLa. In kind it is cell-based. As to conditions: for IC50: MTT, 72 h, four parallel measurements, read-out: IC50 (µM) ± SD HeLa; for SI MRC-5/HeLa: selectivity index: IC50 in non-tumour cells / IC50 in cancer cells. Background: Formazan colour is commonly taken as a measure of viable cells.
Procedure: as §1, §2
In series [3] the test system is MRC-5 human embryonal lung fibroblast cells. Briefly: Antiproliferative MTT assay, MRC-5 non-tumor cells. In kind it is cell-based. The note with it: four parallel measurements, read-out: IC50 (µM) ± SD MRC-5.
Procedure: as §1, §2
Series [4] relates to HeLa cells. Nature of the series: Drug combination assay with doxorubicin (MTT, CompuSyn). In kind it is cell-based, human. On the set-up: key to CI (combination index): CI <1 synergy, ~1 additivity, >1 antagonism. The note with it: for Interaction: interaction type with doxorubicin; for CI (combination index): with doxorubicin, 72 h, average over drug ratios at IC50. On the procedure: The HeLa cell line was used to perform this assay. Doxorubicin (2 mg/mL, Teva Pharmaceuticals, Budapest, Hungary) was serially diluted in the horizontal direction, starting with 8.6 µM. The resistance modifier was subsequently diluted in the vertical direction, and the starting concentration was determined based on the IC50. The dilutions of doxorubicin were made in a horizontal direction in 100 µL, and the dilutions of the resistance modifiers occurred vertically in the microtiter plate in a 50 µL volume. The compounds and doxorubicin were diluted separately. […] Then, diluted compounds with a volume of 50 μL were added to each well to reach a final volume of 200 μL. The plates were incubated for 72 h at 37 °C in a CO2 incubator, and at the end of the incubation period, the cell growth was determined by the MTT staining method, as described earlier. Drug interactions were evaluated using CompuSyn software. Each dose-response curve (for individual agents as well as combinations) was fit to a linear model using the median effect equation in order to obtain the median effect value (corresponding to the IC50) and slope (m). The goodness-of-fit was assessed using the linear correlation coefficient, r, and only data from analysis with r > 0.90 are presented. The extent of the interaction between drugs was expressed using the combination index in which a CI value close to 1 indicates additivity, while CI < 1 is defined as synergy and CI > 1 as antagonism.

A short description of series [5]: Stability of the hemiacetal, 1H NMR measured again. It counts as physicochemical. The note with it: 1H NMR measured again one day later; two sets of signals approx. 1:0.6. The text has this: Compound 2 (ensifolin B) has the molecular formula C25H24O4 compatible with the fragment ion in the HRESIMS at m/z 369.1497 [M − H2O − H]^− (calcd for 369.1491). […] The structure of the phenanthrene skeleton was assembled through 2D NMR analysis. It was concluded that the phenanthrene core of compound 2 is identical to sylvaticin A, a 9,10-dihydrophenanthrene recently described from Luzula sylvatica. However, NMR characteristics of the H2-11 oxymethylene in 2 are different compared to those of sylvaticin A, including its […] shifted carbon (δC 66.2 vs. 60.2) and magnetically inequivalent protons (δH 5.19 and 5.09, vs. δH 5.01, 2H, s). […] Similar to compound 1, ensifolin B (2) also has an asymmetric carbon atom (C-1′). The specific rotation value [α ]D25 of the compound was +2 (c 0.1, MeOH). When compound 2 was injected onto a chiral HPLC column, it eluted with two well-separated peaks with a peak ratio area of 1:1. […] Intermolecular hemiacetals are intrinsically unstable with respect to their parent alcohols and aldehydes. […] Considering that sylvaticin A and 4-hydroxybenzaldehyde, the minor compounds of the mixture were also isolated from other fractions (compound 16 and 18, respectively), it is unclear whether these phytochemicals originally presented in the harvested plant material or whether they are just by-products of the decomposition of compound 2.

Series [6] relates to COLO 320/MDR-LRP multidrug resistant colonic adenocarcinoma cells expressing P-gp. Nature of the series: Antiproliferative MTT assay, COLO 320. As to conditions: for IC50: read-out: IC50 (µM) ± SD COLO 320; for SI MRC-5/COLO 320: selectivity index: IC50 in non-tumour cells / IC50 in cancer cells.
Procedure: as §1, §2
The subject of series [7] is superoxide anion generation. More on the design: method as in PMID 27940118. As to conditions: anti-inflammatory activity ref 16; cited from earlier work.
The test system of series [8] is HeLa cells. On the set-up: method as in PMID 33064469. As to conditions: HeLa ref 15; read-out: IC50 antiproliferative activity against HeLa cells; cited from earlier work.
The next series relates to human neutrophils. More on the design: method as in PMID 27940118. The note with it: fMLP/CB activation ref 16, read-out: IC50 elastase release; cited from earlier work.

Where two headings read alike, the source gives them in different places.

What is called IC50 is the concentration that inhibits the measured activity by half.

In the case of `C=Cc1cc(C)cc2c1-c1ccc(O)c(COC(O)c3ccc(O)cc3)c1CC2` (centres unmarked) [Compound 2, Ensifolin B], the IC50 in series [1] (Homo sapiens, COLO 205, 72 h) turned out to be 45.6 ± 0.5 µM; in series [2] (Homo sapiens, HeLa), 33.49 ± 0.29 µM; in series [3] (Homo sapiens, MRC5, 72 h) it was 51.87 ± 0.14 µM; in series [6] (Homo sapiens, COLO 320, 72 h), 37.24 ± 0.11 µM. Further, the “SI MRC-5/COLO 205” value in series [1] is on record as 1.14. In [2], the “SI MRC-5/HeLa” value amounted to 1.55. The Interaction entry with HeLa cells [4] was “synergism (0.3 < CI < 0.7: synergism)”. In addition, the “CI (combination index)” value in the series with HeLa cells [4] worked out at 0.584. The “stability of initially pure compound” value in [5] is “showed signs of decomposition”. In addition, the “SI MRC-5/COLO 320” value in [6] turned out to be 1.39.
Take `C=Cc1c(C)c(O)cc2c1-c1ccc(O)c(C)c1CC2` [juncusol, reference compound]: in series [7], the IC50 was 3.1 µM.
On to juncuenin B [Compound 15], for which the IC50 in series [1] is 37.1 ± 0.57 µM; in series [2], 6.67 ± 0.03 µM; in series [3] (72 h), 35.9 ± 1.23 µM; in the series on HeLa cells [8] it was 2.9 µM; in series [7], 4.9 µM; in the series on human neutrophils, 5.5 µM. Besides, the IC50 in series [6] (MTT, 72 h, four parallel measurements) worked out at 30.5 ± 0.93 µM. Also, the “SI MRC-5/COLO 205” value in [1] came to 0.97. For the same molecule, in [2], the “SI MRC-5/HeLa” value was 5.37. Further, the Interaction entry in the series on HeLa cells [4] is on record as “slight synergism (0.7 < CI < 0.9: moderate to slight synergism)”. Also, in the series on HeLa cells [4], the “CI (combination index)” value amounted to 0.864. Also, in [6], the “SI MRC-5/COLO 320” value is on record as 1.17.
